Assay [1] deals with benzodiazepine receptors. To be noted: U.S. Pat. No. 4,849,421; cited from earlier work.
Assay [2] is described as follows: Effects on seizure induced by maximal electroshock (anti-MES action). The assay is classed as in vivo, male ddY mice. Particulars: 1 hour before MES. The protocol:
The test was carried out using groups of five male ddY mice. The animals were challenged with a maximal electroshock (MES, AC 2000 V, 12.5 mA, 0.2 sec) delivered through bilatesal corneal electrodes 1 hour after the oral or intraperitoneal administration of the test compounds. Antagonism of MES-induced seizure was defined as the absence of the tonic extention.

The target in assay [3] is benzodiazepine receptors. Put plainly: 3H-diazepam (3H-DZP) binding assay, displacement at benzodiazepine receptors. Details: species or system Wistar rats (cerebral cortex). Particulars: tritiated diazepam 2 nM, 0° C., 20 min; read-out: Affinity for BZP receptors Ki. The method, then: ^3 H-DZP binding assay was carried out according to the previously described method in Life Science, vol. 20, 2101 (1977).
The crude cynaptosomal fraction prepared from the cerebral cortex of Wistar rats aged 9-10 weeks was suspended in 50 mM Tris-hydrochloric acid buffer (pH 7.4) containing 120 mM sodium chloride and 5 mM potassium chloride. These suspensions were used for the following experiment.
The reaction was started by the addition of synaptosomal suspension to the solution containing tritiated diazepam (final concentration is 2 nM) and a known concentration of test compounds at 0° C. for 20 min. The binding was stopped by the filtration under vacuum through Whatman GF/B filters and the filters were immediately washed with the above-mentioned buffer. The radioactivity on the filters was measured by a liquid scintillation counter.
The binding affinities of the compound of the present invention for benzodiazepine receptors are evaluated from its displacement ability for tritiated diazepam at its binding site, which is represented as Ki value (nM).

Assay [4] is described as follows: Anti-bicuculline action. It counts as in vivo, male ddY mice. To be noted: Mus musculus; (+) bicuculline 0.6 mg/kg i.v. 1 hour after oral administration; prevention of tonic extention; read-out: Antibicuculline effect ED50. The protocol: The anti-bicuculline action of the test compounds was done according to the method reported in Life Science, vol. 21, 1779 (1977).
The test was carried out using groups of 7-14 male ddY mice weighing 20-25 g. The animals were challenged with (+) bicuculline (0.6 mg/kg i.v.) 1 hour after the oral administration of the test compounds. The ED50 values were calculated by the probit method as the dose which prevent the tonic extention in half of the animals.

A short description of assay [5]: Antianxiety effect (Vogel type conflict test). To be noted: Rattus norvegicus, po; orally 1 hr before test; P<0.05 vs 0.5% MC control; read-out: Antianxiety effect MED (minimum effective dose). The assay is classed as in vivo, Wistar rats. The text has this: The experimental procedure used modified the method of Vogel et al (1971). Wistar rats were used. They were deprived of water for 72 hr before the test. The rats were placed in a plexiglas conflict test box (light compartment: 38×38×20 cm, dark compartment: 10×10×20 cm). A water bottle with a stainless steel spout was fitted to the middle of the outside, so that the spout extended 3 cm into the box at a height of 10 cm above the grid floor. A drinkometer circuit (Ohara Inc., Nihon Koden) was connected with the spout and the number of licks were counted. The rat was placed into the apparatus where an electric shock (0.2-0.3 mA, 0.3 sec) was given once every 20th lick. After the rat received the first electric shock, the number of shocks were recorded during the subsequent 3 min test period. The test compounds were administered orally 1 hr before the test. The minimum effective dose (MED) was defined as the lowest dose producing a statistically significant difference between 0.5% MC-treated (control) and test drug treated punished responses (One-way ANOVA test; P<0.05).

For the compound `O=c1cc2c(nn1-c1ccc(Cl)cc1)-c1ccccc1SCC2` [2-(4-chlorophenyl)-5,6-dihydro[1]benzothiepino[5,4-c]pyridazin-3(2H)-one], the “activity against BZP receptors” value in assay [1] was “partial agonistic activity”.
Regarding `O=C1CC2CCSc3sccc3C2=NN1c1ccc(Cl)cc1` (centres unmarked) [Example 14], the “Inhibitory rate (anti-MES)” value is 100% in assay [2] (30 mg/kg i.p.), 40% in assay [2] (30 mg/kg p.o.) and 100% in assay [2] (100 mg/kg p.o.).
In general, Ki refers to the equilibrium dissociation constant of an inhibitor or competing ligand from its target. As a reminder, the ED50 is the dose at which the effect has come halfway, by size or by number of responders. For `CCc1cc2c(s1)SCCc1cc(=O)n(-c3ccc(Cl)cc3)nc1-2` [Example 22, 2-(4-chlorophenyl)-9-ethyl-5,6-dihydrothieno[2',3':2,3]thiepino[4,5-c]pyridazin-3(2H)-one], the Ki in assay [3] was 1.8 nM. Moreover, the ED50 in assay [4] was found to be 0.49 mg/kg.
`CCc1cc2c(s1)[S+]([O-])CCc1cc(=O)n(-c3ccc(Cl)cc3)nc1-2` (centres unmarked) [Example 25, 2-(4-chlorophenyl)-9-ethyl-5,6-dihydrothieno[2',3':2,3]thiepino[4,5-c]pyridazin-3(2H)-one 7-oxide]: in assay [2] (30 mg/kg i.p.), the “Inhibitory rate (anti-MES)” value is listed as 80%. Moreover, the Ki in assay [3] was found to be 1.4 nM. For the same compound, the ED50 in assay [4] is 0.66 mg/kg.
`O=c1cc2c(nn1-c1ccc(Cl)cc1)-c1cc(Br)sc1[S+]([O-])CC2` (centres unmarked) [Example 26, 9-bromo-2-(4-chlorophenyl)-5,6-dihydrothieno[2',3':2,3]thiepino[4,5-c]pyridazin-3(2H)-one 7-oxide]: the Ki in assay [3] came out at 1.4 nM. In addition, the ED50 in assay [4] is 0.56 mg/kg.
`CCc1cc2c(s1)S(=O)(=O)CCc1cc(=O)n(-c3ccc(Cl)cc3)nc1-2` [Example 28, 2-(4-Chlorophenyl)-9-ethyl-5,6-dihydrothieno[2',3':2,3]thiepino[4,5-c]pyridazin-3(2H)-one 7,7-dioxide]: the minimal effective dose in assay [5] came out at 2.5 mg/kg. Further, the Ki in assay [3] amounted to 0.63 nM. Further, in assay [4], the ED50 stood at 0.23 mg/kg.
For `CC(O)c1cc2c(s1)S(=O)(=O)CCc1cc(=O)n(-c3ccc(Cl)cc3)nc1-2` (centres unmarked) [Example 50, 2-(4-chlorophenyl)-9-(1-hydroxyethyl)-5,6-dihydrothieno[2',3':2,3]thiepino[4,5-c]pyridazin-3(2H)-one 7,7-dioxide], the Ki in assay [3] was determined as 0.97 nM. In assay [4], the ED50 was determined as 0.87 mg/kg.
The corresponding values for `CCc1cc2c(s1)SCCc1cc(=O)n(-c3ccc(OC)cc3)nc1-2` [Example 58, 9-ethyl-2-(4-methoxyphenyl)-5,6-dihydrothieno[2',3':2,3]thiepino[4,5-c]pyridazin-3(2H)-one] are 0.56 nM and 0.4 mg/kg.
The corresponding values for `CCc1cc2c(s1)S(=O)(=O)CCc1cc(=O)n(-c3ccc(OC)cc3)nc1-2` [Example 64, 9-Ethyl-2-(4-methoxyphenyl)-5,6-dihydrothieno[2',3':2,3]thiepino[4,5-c]pyridazin-3(2H)-one 7,7-dioxide] are 0.44 nM and 1.4 mg/kg.
Take `O=c1cc2c(nn1-c1ccc(Cl)cc1)-c1cc(Br)sc1S(=O)(=O)CC2` [Example 65, 9-Bromo-2-(4-chlorophenyl)-5,6-dihydrothieno[2',3':2,3]thiepino[4,5-c]pyridazin-3(2H)-one 7,7-dioxide]: the Ki in assay [3] turned out to be 0.12 nM. The ED50 in assay [4] is 1.4 mg/kg.
Turning to `CCCc1cc2c(s1)SCCc1cc(=O)n(-c3ccc(Cl)cc3)nc1-2` [Example 69, 2-(4-Chlorophenyl)-9-propyl-5,6-dihydrothieno[2',3':2,3]thiepino[4,5-c]pyridazin-3(2H)-one], the “Inhibitory rate (anti-MES)” value in assay [2] (30 mg/kg i.p.) worked out at 80%.
Regarding `CCCc1cc2c(s1)[S+]([O-])CCc1cc(=O)n(-c3ccc(Cl)cc3)nc1-2` (centres unmarked) [Example 70, 2-(4-Chlorophenyl)-9-propyl-5,6-dihydrothienol[2',3':2,3]thiepino[4,5-c]pyridazin-3(2H)-one 7-oxide], in assay [3], the Ki came to 0.62 nM. Further, in assay [4], the ED50 is 0.62 mg/kg.
In the case of `CCCc1cc2c(s1)S(=O)(=O)CCc1cc(=O)n(-c3ccc(Cl)cc3)nc1-2` [Example 71, 2-(4-Chlorophenyl)-9-propyl-5,6-dihydrothieno[2',3':2,3]thiepino[4,5-c]pyridazin-3(2H)-one 7,7-dioxide], the “Inhibitory rate (anti-MES)” value in assay [2] (30 mg/kg i.p.) came to 100%.

The values are drawn from patent publication US5175162A, “Thiophene compounds and their pharmaceutical uses” (Yoshitiomi Pharmaceutical Industries Ltd., priority 1989, dated 1992).
